# Measured values taken from article doi:10.1101/2020.03.05.979567v1 (biorxiv, 2020).
# Columns and labels:
# [1] = molecular target: NAPE-PLD (endogenous, HEK293 cells) (Homo sapiens, UniProt Q6IQ20); assay: PED-A1 hydrolysis in intact HEK293 cells, fluorescence; assay type: cell-based; settings: 30 min preincubation, 3.5 μM PED-A1
# [2] = molecular target: T1, recombinant mouse Nape-pld (Mus musculus, UniProt Q8BH82); assay: biochemical
# T1 sequence (Q8BH82 1-396): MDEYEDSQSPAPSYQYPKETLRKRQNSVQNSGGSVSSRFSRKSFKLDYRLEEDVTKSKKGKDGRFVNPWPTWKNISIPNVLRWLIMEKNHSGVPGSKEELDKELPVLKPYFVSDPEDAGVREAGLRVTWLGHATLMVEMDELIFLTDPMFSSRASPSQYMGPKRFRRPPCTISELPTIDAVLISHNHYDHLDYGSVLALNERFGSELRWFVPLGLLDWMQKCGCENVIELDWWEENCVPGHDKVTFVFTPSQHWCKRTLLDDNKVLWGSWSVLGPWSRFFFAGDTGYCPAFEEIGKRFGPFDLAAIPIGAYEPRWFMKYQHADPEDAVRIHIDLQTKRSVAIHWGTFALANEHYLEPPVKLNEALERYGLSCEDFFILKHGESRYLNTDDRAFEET
# [3] = molecular target: T1, recombinant mouse Nape-pld; assay: PED-A1 hydrolysis, fluorescence, initial rate; assay type: biochemical
# [4] = molecular target: T2, Streptomyces chromofuscus phospholipase D (ScPld) (Streptomyces chromofuscus, UniProt Q8KRU5); assay: PED-A1 hydrolysis, fluorescence; assay type: biochemical
# T2 sequence (Q8KRU5 47-556): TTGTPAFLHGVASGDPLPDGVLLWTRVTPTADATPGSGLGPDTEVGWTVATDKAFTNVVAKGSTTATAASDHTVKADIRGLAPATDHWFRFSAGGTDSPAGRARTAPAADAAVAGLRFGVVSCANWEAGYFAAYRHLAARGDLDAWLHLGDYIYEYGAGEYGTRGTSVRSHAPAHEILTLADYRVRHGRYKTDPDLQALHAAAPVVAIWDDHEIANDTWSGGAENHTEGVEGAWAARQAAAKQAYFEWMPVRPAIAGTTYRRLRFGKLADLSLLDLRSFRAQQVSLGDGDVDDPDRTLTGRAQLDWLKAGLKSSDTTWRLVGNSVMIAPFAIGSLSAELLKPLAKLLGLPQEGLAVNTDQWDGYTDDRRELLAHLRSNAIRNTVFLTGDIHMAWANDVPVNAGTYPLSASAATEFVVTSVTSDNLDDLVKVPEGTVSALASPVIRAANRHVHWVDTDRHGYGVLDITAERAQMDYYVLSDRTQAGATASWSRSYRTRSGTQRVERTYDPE
# [5] = molecular target: T1, recombinant mouse Nape-pld; assay: PED-A1 hydrolysis kinetics, fluorescence; assay type: biochemical
# [6] = molecular target: T1, recombinant mouse Nape-pld; assay: biochemical; remark: listed apart in the source
# [7] = molecular target: T1, recombinant mouse Nape-pld; assay: biochemical; remark: listed apart in the source
# Sequence of NAPE-PLD (endogenous, HEK293 cells) (Q6IQ20 whole entry): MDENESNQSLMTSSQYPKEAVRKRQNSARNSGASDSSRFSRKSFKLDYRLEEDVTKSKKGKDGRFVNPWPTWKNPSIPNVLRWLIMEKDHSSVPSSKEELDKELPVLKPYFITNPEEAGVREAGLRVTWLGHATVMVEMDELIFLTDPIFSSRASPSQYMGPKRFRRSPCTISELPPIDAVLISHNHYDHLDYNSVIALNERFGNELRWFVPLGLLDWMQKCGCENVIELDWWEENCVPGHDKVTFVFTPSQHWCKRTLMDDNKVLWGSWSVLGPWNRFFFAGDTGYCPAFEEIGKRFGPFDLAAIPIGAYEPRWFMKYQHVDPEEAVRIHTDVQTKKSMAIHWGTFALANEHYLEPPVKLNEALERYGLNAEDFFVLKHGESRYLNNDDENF
IC50 [2] [µM],IC50 [3] [µM],Compound,further results
2.1,,"Oc1c(Cl)cc(Cl)cc1Sc1cc(Cl)cc(Cl)c1O [Inh 2, bithionol]",IC50 [1]: 10.7 µM; IC50 [4]: > 200 µM
2.8,,"COc1c(O)cc2oc3cc(O)c(CC=C(C)C)c(O)c3c(=O)c2c1CC=C(C)C [Inh 3, Mangostin]",
,7.8,"CCCCC(=O)O[C@H]1CC[C@H]2[C@@H]3CCc4cc(O)ccc4[C@H]3CC[C@]12C [Inh 7, estradiol valerate]",
19.1,,"COc1ccc(C(=O)c2ccccc2O)c(O)c1 [Inh 14, dioxybenzone]",
,23.2,"Oc1ccc(Cl)cc1Cc1cc(Cl)ccc1O [Inh 17, Dichlorophen]",
,26.8,"Oc1ccc(Cl)cc1Sc1cc(Cl)ccc1O [Inh 18, Fenticlor]",
,26.5,"Oc1c(Cl)cc(Cl)cc1Cc1cc(Cl)cc(Cl)c1O [Inh 21, CAS 1940-43-8]",
,5,"Oc1c(Br)cc(Cl)cc1Cc1cc(Cl)cc(Br)c1O [Inh 22, CAS 15435-29-7]",
,2.8,"Oc1c(Cl)cc(Cl)cc1C(c1cc(Cl)cc(Cl)c1O)C(Cl)(Cl)Cl [Inh 23, CAS 92167-59-4]",

# Continued, molecule first:
Compound,IC50 [2] [µM],IC50 [3] [µM],further results
"Oc1c(Cl)cc(Cl)c(Cl)c1Cc1c(O)c(Cl)cc(Cl)c1Cl [Inh 1, hexachlorophene]",1.6,~2,IC50 [1]: 9.8 µM; IC50 [4]: 149 µM; Ki [5]: ~2000 nM
"O=c1c2ccccc2[se]n1-c1ccccc1 [Inh 4, ebselen]",2.8,,
"CC1=C(O)C(=O)C=C2C1=CC=C1[C@@]2(C)CC[C@@]2(C)[C@@H]3C[C@](C)(C(=O)O)CC[C@]3(C)CC[C@]12C [Inh 5, Tripterine]",3,,
"Cc1cc2c(C(C)C)c(O)c(O)c(C=O)c2c(O)c1-c1c(C)cc2c(C(C)C)c(O)c(O)c(C=O)c2c1O [Inh 6, Gossypol]",6.9,,
"CC(C)=CCC[C@]1(C)C=Cc2c(O)c3c(c(CC=C(C)C)c2O1)O[C@]12C(=C[C@@H]4C[C@H]1C(C)(C)O[C@@]2(C/C=C(/C)C(=O)O)C4=O)C3=O [Inh 9, Gambogic acid]",9.9,,
"[H]/N=C(\N/C(=N/[H])NCCCCCCNC(=N)NC(=N)Nc1ccc(Cl)cc1)Nc1ccc(Cl)cc1 [Inh 10, Chlorhexidine]",10.4,,
"Clc1cc(Cl)c(Cl)c(Cc2cc(Cl)cc(Cl)c2Cl)c1 [Inh 15, CAS 2888-15-5]",,,IC50 [6]: > 200 µM
"COc1ccc(Cl)cc1Cc1cc(Cl)ccc1OC [Inh 19, CAS 7569-57-5]",,,IC50 [6]: > 200 µM
"CC(C)(c1cc(Cl)c(O)c(Cl)c1)c1cc(Cl)c(O)c(Cl)c1 [Inh 24, CAS 79-95-8]",,64.7,
"Oc1cc(Cl)ccc1Oc1ccc(Cl)cc1Cl [Inh 25, triclosan]",,62.9,
"O=C(Nc1ccc(Cl)cc1)Nc1ccc(Cl)c(Cl)c1 [Inh 26, triclocarban]",,,IC50 [7]: > 200 µM
